We go through three compounds from US9115061B2, “Naphthalene-based inhibitors of anti-apoptotic proteins” (BURNHAM INSTITUTE FOR MEDICAL RESEARCH, priority 2007, dated 2015).

One series deals with Mcl-1 (Homo sapiens (Human), UniProt Q07820). The settings on record: cited from earlier work.
Another series concerns H1299. The settings on record: cited from earlier work.
Another series has as its target GST-BCL-2 (Homo sapiens (Human), UniProt P10415). As to the kind of experiment: Fluorescence polarization assay (FITC-Bim BH3 peptide). Type of series: binding. The following applies: read-out: EC50 FPA BCL-2. How it is done:
After 30 min incubation at room temperature, the polarization values in millipolarization units were measured at excitation/emission wavelengths of 480/535 nm with a multilabel plate reader (PerkinElmer). IC50 was determined by fitting the experimental data to a sigmoidal dose-response nonlinear regression model (SigmaPlot 10.0.1, Systat Software, Inc., San Jose, Calif., USA). Data reported are mean of three independent experiments ±standard error (SE). Performance of BCL-2 and Mcl-1 FPA are similar. […] Fluorescence polarization was measured after 10 min.
(In general: In fluorescence polarisation assays a small probe gives low polarisation when free and higher when bound to something large.)

In the next series the test system is H460 cell line. In words: Cell viability, ATP-LITE assay. Type of series: cell-based, human. The following applies: 72 hours, ATP-LITE. How it is done: (§1) The activity of the compounds against human cancer cell lines (PC3ML, H460, H1299, RS11846) were assessed by using the ATP-LITE assay (PerkinElmer). All cells were seeded in either F12 or RPMI1640 medium with 5 mM L-glutamine supplemented with 5% fetal bovine serum (Mediatech Inc.), penicillin and streptomycin (Omega). For maintenance, cells were cultured in 5% FBS. Cells plated into 96 well plates at varying initial densities depending on doubling time. H460 and H1299 plated at 2000 cells/well, A549 and PC3 at 3000 cells/well, and RS118456S at 10,000 cells/well. Compounds were diluted to final concentrations with 0.1% DMSO. Prior to dispensing compounds onto cells, fresh 5% media was placed into wells. Administration of compounds occurred 24 hours after seeding into the fresh media. Cell viability was evaluated using ATP-LITE reagent (PerkinElmer) after 72 hours of treatment. Data were normalized to the DMSO control-treated cells using Prism version 5.01 (Graphpad Software).

A further series deals with PC3ML cells. In words: Cell viability, ATP-LITE assay. Type of series: cell-based, human. The settings on record: 72 hours, ATP-LITE. How it is done: as §1
Series [1] has as its system RS11846 cell line. In words: Cell viability, ATP-LITE assay. Type of series: cell-based, human. The settings on record: 72 hours. How it is done: as §1
Series [2] deals with RS11846 cell line. As to the kind of experiment: Apoptosis, Annexin V and propidium iodide assay. Type of series: cell-based, human. The settings on record: 1-2 days; read-out: RS11846 EC50 (Annexin V- and propidium iodide assay).
The next series can be described thus: Plasma stability. Type of series: in vitro ADME, rat. The settings on record: rat plasma, 1 h, 37.5° C. How it is done:
A 20 μL aliquot of a 10 mM solution in DMSO of the test compound was added to […] of heparinized rat plasma (Lampire, P1-150N) to obtain a 100 μM final solution. The mixture was incubated for 1 h at 37.5° C. Aliquots of 100 μL were taken (0, 30 min, 1 h) and diluted with 200 μL of MeOH containing internal standard.

The subject of a further series is Balb/c mice. In words: Oral toxicity study in normal Balb/c mice. Type of series: in vivo, mouse. How it is done:
Compounds or vehicle control were dosed 15 times over 3 weeks, giving compounds daily for 5 consecutive days (Monday-Friday), resting on weekends.
Both compounds were provided by NCI-DTP (RAID-program). Compounds were dissolved in 100% sesame oil just before oral administration. Vehicle-control consisted of corresponding concentration of ascorbic acid suspended in 100% sesame oil.
(§2) Spleens were removed and weighed.
Whole blood (250 μl) was collected in EDTA-coated glass tubes (purple top; MICROTAINER Brand Tube with EDTA, Catalogue #365973, Becton, Dickinson and Company, New Jersey 07417-1885) via either cardiac puncture or severing the brachial artery of anesthetized mice. After thorough mixing, specimens were analyzed using a VetScan HM2 (Abaxis Inc., Union City, Calif. 94587) hematology analyzer, measuring white blood cell count (WBC), red blood cell count (RBC), platelet (PLT) count, leukocyte differential (including % lymphocyte, % monocyte and % granulocyte), hematocrit (Ht), and hemoglobin (Hb).
(Eppendorf Centrifuge 5415C) for 2 minutes to separate serum from cells and fibrin clot. The resulting serum specimens were analyzed using an automated blood chemistry analyzer (“COBAS MIRA Classic”; Roche, Indianapolis, Ind. 46250-0414) to measure alanine aminotransferase (ALT) and aspartate aminotransferase AST), blood urea nitrogen (BUN), and […].
Stomach and intestines were examined also imaged by ultrasound for evidence of dilation, an indication of GI toxicity. Briefly, mice were anesthetized using a mixture of isofluorane (5%) and oxygen gas (95%), restrained on a heated table using Aquagel Lubrication Gel (Parker Laboratories, Inc., Fairfield, N.J. 07004), and abdominal hair was removed with a chemical depilation agent (Nair™ Hair Removal, Church & Dwight Co., Inc., Princeton, N.J. 08543). Aquasonic 100 Ultrasound Transmission Gel (Parker Laboratories, Inc., Fairfield, N.J. 07004) was applied to the abdomen prior to imaging using a high-frequency probe to assess gas and intestinal distention.
Immediately after ultrasound imaging, electrocardiogram (ECG) analysis of anesthetized mice was performed using a MP150 Biopack System.

The test system of a further series is 380 cell line. As to the kind of experiment: Apoptosis induction in NHL B-cell lines, Annexin V-FITC/PI. The settings on record: 48 hours, relative to DOHH2 and RS11846. Type of series: cell-based. How it is done: (§3) After 48 hours of incubation, % viability was determined by FACSort after staining cells by the use of an Annexin V-FITC/PI Apoptosis Detection kit (BioVision Inc.). Viable cells were defined by Annexin V-negative, PI-negative cells.

For the next series, the system named is DOHH2 cell line. Described as above. Type of series: cell-based. The following applies: 48 hours; read-out: IC50, % viability DOHH2. How it is done:
as §3

Series [3] has as its system RS11846 cell line. The description is as above. Type of series: cell-based. The settings on record: 48 hours; read-out: IC50, % viability RS11846. How it is done:
as §3

Series [4] relates to murine B-cells from BCL-2 transgenic mice. In words: Viability of cultured splenocytes, Annexin V-FITC/PI. Type of series: cell-based. The settings on record: 18 hours; read-out: IC50, induction of apoptosis in cultured B-cells of BCL-2 transgenic mouse. How it is done:
(§4) Spleens were excised from sacrificed mice and cell suspensions treated with a mouse erythrocyte lysing kit (R & D Systems). Total splenocyte count was determined by typan blue dye exclusion assays using hemocytometers. The percentage of B-lymphocytes was determined by fluorescence activated cell sorter (FACS) analysis SACS-CANTO, Bectin-Dickinson Inc., Mountain View, Calif.) following staining cells with Phyco-Erytrin (PE)-conjugated anti-CD19 or -B220 antibodies (Becton Dickinson, San Jose, Calif. 95131).
After 18 hours of incubation, % viability of splenocytes was determined by FACSort after staining cells by the use of an Annexin V-FITC/PI Apoptosis Detection kit (BioVision Inc.). Viable cells were defined by Annexin V-negative, PI-negative cells.

Another series relates to BCL-2 transgenic mice. As to the kind of experiment: Oral efficacy study in BCL-2 transgenic mice (splenomegaly). Type of series: in vivo, mouse. How it is done:
The transgene was propagated on the Balb/c background.
as §2, §4
Representative data are shown by FIGS. 11A and 11B.

Series [5] can be described thus: Liver microsomal stability. The settings on record: rat liver microsomes, 4 μM, 60 min.
Description: Pooled rat liver microsomes (BD Biosciences, #452701) were preincubated with test compounds at 37.5° C. for 5 min in the absence of NADPH. The reaction was initiated by addition of NADPH and then incubated under the same conditions. […] One aliquot (100 μL) of the incubation mixture was withdrawn at 0, 15, 30, and 60 min and combined immediately with 200 μL of ACN/MeOH containing an internal standard. After mixing, the sample was centrifuged at approximately 13,000 rpm for 12 min. The supernatant was transferred into an autosampler vial and the amount of test compound was quantified using the Shimadzu LCMS 2010EV mass spectrometer. The change of the AUC (area under the curve) of the parent compound as function of time was used as a measure of microsomal stability.
A short description of series [6]: PAMPA (parallel artificial membrane permeation assay). The settings on record: PAMPA, pH 7.2, 8 h. In general terms: PAMPA measures passive passage across an artificial lipid membrane.
Description: PAMPA is parallel artificial membrane permeation assay. A 96-well microtiter plate (Millipore, # MSSACCEPTOR) was completely filled with aqueous buffer solution (pH 7.2) and covered with a microtiter filterplate (Millipore, # MAPBMN310). The hydrophobic filter material was impregnated with a 10% solution of hexadecane in hexane and the organic solvent was allowed to completely evaporate. Permeation studies were started by the transfer of 200 μL of a 100 μM test compound solution on top of the filterplate. In general phosphate buffer at pH 7.2 buffer was used. The maximum DMSO content of the stock solutions was <5%. In parallel, an equilibrium solution lacking a membrane was prepared using the exact concentrations and specifications but lacking the membrane. The concentrations of the acceptor and equilibrium solutions were determined using the Shimadzu LCMS-2010EV and AUC methods. The permeation of a compound through the membrane layer is described by the percentage permeation (% flux). The flux values were calculated considering the concentration of the acceptor compartment after 8 h and that of a reference well with the same concentration containing no membrane barrier.
The test system of the next series is MCF7 cells. As to the kind of experiment: XTT dye reduction assay. Type of series: cell-based, human. The following applies: three days. How it is done:
(§5) The effects of the compounds on viability of tumor cells in culture were monitored by using XTT assays with MCF7 and ZR75-1 cell lines. MCF7 cells were grown in DMEM containing 10% fetal bovine serum, penicillin/streptomycin, supplemented with 10^−10 M insulin, 1 mM sodium pyruvate and glutamine. ZR75-1 cells were grown in RPMI containing 10% fetal bovine serum, penicillin/streptomycin, supplemented with HEPES buffer, 1 mM sodium pyruvate and glutamine. Cells were regularly tested for mycoplasma contamination. Cells were seeded triplicates at an initial cell density of 1,000 cells per well. Blank wells received no cells.
(§6) Relative numbers of viable cells was determined by XTT assay. Briefly, in a 96-well plate, we added 50 μl of a mixture of 1 mg/ml of XTT (2,3-bis(2-methoxy-4-nitro-5-sulfophenyl)-5-[(phenylamino)carbonyl]-2H-tetrazolium hydroxide) (Polysciences, Washington, Pa.) containing 0.025 mM PMS (phenazine methosulfate) to each well. The 96-well plates were reincubated for an additional 4 hours to allow for XTT formazan production. Then, the contents of each plate were mixed and optical densities were determined at a wavelength of 450 nm (OD450). Net OD450 was determined after subtracting OD450 of blank wells. Low-passage HeLa cells (between passage number 10 and 20) were transfected with pcDNA3-BCL-XL or control pcDNA3 plasmids using Lipofectamine Plus reagent (Invitrogen) and selected in medium containing 800 μg/ml of G418. Immunoblot analysis of BCL-XL was accomplished as previously described.
Background: Formazan colour is commonly taken as a measure of viable cells.

The subject of the next series is ZR75-1 cells. In words: XTT dye reduction assay. Type of series: cell-based, human. The settings on record: three days. How it is done: as §5, §6
Another series has as its target BCL-XL (Homo sapiens (Human), UniProt Q07817). As to the kind of experiment: Fluorescence polarization assay with fluorescein-labeled Bad peptide. Type of series: binding. The following applies: Table 5. How it is done:
FP A assays were conducted with a fluorescein-labeled Bad peptide (NL […] Corporation, Dublin, Calif.) using a LJL Analyst HT Molecular Devices Co., Sunnyvale, Calif.). […] The tubes were incubated for 5 minutes at room temperature and 20 μl each of reaction mixture was transferred to 96-well black PS, HE Microplate (LJL Biosystems Co). All assays were performed in quadruplicate, with blank wells receiving no Gossypol. […] Controls included dose-responses measurements in absence of the proteins, to assess any interactions between the compounds and the FITC-BH3 peptide. Eventual effects were taken into account by subtraction.

BCL-XL, sequence (Q07817 whole entry): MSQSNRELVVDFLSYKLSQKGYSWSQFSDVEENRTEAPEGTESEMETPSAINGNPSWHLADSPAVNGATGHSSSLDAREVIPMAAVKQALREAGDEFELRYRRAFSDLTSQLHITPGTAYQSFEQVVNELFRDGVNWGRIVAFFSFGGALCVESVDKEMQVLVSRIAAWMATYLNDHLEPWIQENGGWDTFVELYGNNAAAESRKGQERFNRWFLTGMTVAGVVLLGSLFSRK
GST-BCL-2, sequence (P10415 whole entry): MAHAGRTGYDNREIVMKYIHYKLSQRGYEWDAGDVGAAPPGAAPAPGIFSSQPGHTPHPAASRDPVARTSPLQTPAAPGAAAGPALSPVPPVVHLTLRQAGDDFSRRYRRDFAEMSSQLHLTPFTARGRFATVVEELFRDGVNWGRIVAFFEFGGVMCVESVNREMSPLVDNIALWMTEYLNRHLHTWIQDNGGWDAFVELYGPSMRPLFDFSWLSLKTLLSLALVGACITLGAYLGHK
Mcl-1, sequence (Q07820 whole entry): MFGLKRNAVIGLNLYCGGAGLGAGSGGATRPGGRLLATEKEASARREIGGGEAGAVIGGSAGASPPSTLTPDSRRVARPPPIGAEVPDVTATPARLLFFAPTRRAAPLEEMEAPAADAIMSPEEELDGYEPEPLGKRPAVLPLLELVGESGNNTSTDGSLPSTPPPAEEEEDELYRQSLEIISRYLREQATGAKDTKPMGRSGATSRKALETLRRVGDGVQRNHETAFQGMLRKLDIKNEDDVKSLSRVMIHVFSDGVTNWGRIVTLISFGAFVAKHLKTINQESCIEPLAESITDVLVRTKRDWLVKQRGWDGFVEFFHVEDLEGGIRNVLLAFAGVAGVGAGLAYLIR

On to `CN(C)CC[C@H](CSc1ccccc1)Nc1ccc(S(=O)(=O)NC(=O)c2ccc(N3CCN(Cc4ccccc4-c4ccc(Cl)cc4)CC3)cc2)cc1[N+](=O)[O-]` [ABT-737], for which, at Mcl-1, the “effectiveness against Mcl-1” value is “not effective”. In the series with H1299, the “killing of Mcl-1 overexpressing cell lines such as H1299” value is on record as “not effective in killing”.
What is called EC50 is the concentration needed to bring the measured effect to its halfway point. The term IC50 denotes the midpoint of a concentration-inhibition curve. Turning to `Cc1cc2c(C(C)C)c(O)c(O)cc2c(O)c1-c1c(C)cc2c(C(C)C)c(O)c(O)cc2c1O` [Apogossypol, apogossypol], the EC50 on GST-BCL-2 came to 2800 nM; in the series with H460 cell line, 2800 nM; with H460 cell line (listed as apogossypol) it was 3400 nM; in the series with PC3ML cells it was 10300 nM; with RS11846 cell line [1] it was 5000 nM; in the series with RS11846 cell line [2] it was 8600 nM. For the same compound, in “Plasma stability”, the “Plasma Stability (T = 1 hr)” value turned out to be 53%. In addition, in the series on Balb/c mice ([…] oral, day 18 of treatment), the mice found dead result is given as “One of 6”. Also, the “general condition of mice” value with Balb/c mice ([…] oral, three weeks) was “remained active and apparently healthy”. Besides, in the series with Balb/c mice (orally or by intraperitoneal injection), the “toxicity, preliminary maximum tolerated dose (MTD) studies” value is recorded as “less toxic than gossypol”. Further, the “sensitivity of 380 cell line” value in the series with 380 cell line is recorded as “slightly more resistant”. The IC50 with DOHH2 cell line was about 3000 nM; in the series with RS11846 cell line [3], about 3000 nM; in [4] it was 1000 to 2000 nM. Further, in the series on BCL-2 transgenic mice (0.06 mmol/kg oral, QDX5 for 3 weeks), the “tolerability, low dose” value is recorded as “well tolerated”. In the series on BCL-2 transgenic mice (0.06 mmol/kg oral, QDX5 for 3 weeks, wet weight and B-cell count), the “shrinkage of spleen, low dose” value is given as “induced shrinkage of spleen to a significant extent”. Also, in the series with BCL-2 transgenic mice ([…] daily oral), the “spleen size, high dose” value is recorded as “reduced roughly by half”. Also, the “tolerability, high dose” value with BCL-2 transgenic mice ([…] oral, QDX5 for 3 weeks) was “well tolerated”. The “Microsomal Stability (T = 1 hr)” value in series [5] amounted to 60%. For the same compound, in series [6], the “Cell Permeability” value is “Low”.
In the case of `O=c1c(O)cccc2cc(O)c(O)c(O)c12` [Purpurogallin], the “IC50, cell viability MCF7” value with MCF7 cells is recorded as “did not show appreciable activity”. The “IC50, cell viability ZR75-1” value with ZR75-1 cells is on record as “did not show appreciable activity”. On BCL-XL, this compound gave an IC50 of 2200 nM.
